{"source": "patent US20030068615A1", "about": "“Polypeptides that bind HIV gp120 and related nucleic acids, antibodies, compositions, and methods of use” (priority 1999, published 2003)", "molecular_target": "HIV-1LAI envelope gp120 (Human immunodeficiency virus type 1 group M subtype B, UniProt P03377)", "format": "binding", "conditions": "for Counts per 20′ Average-background: CCR5 18-mer scan, radiolabeled HIV-1LAI gp120; for Relative % of Control: mean of two syntheses and binding experiments ± average deviation, wild-type = 100%", "key": {"[1]": {"conditions": "Panel D, 9-mers and 12-mers of CD4, empty control […]"}, "[2]": {"conditions": "STRL33 18-mer scan, background subtracted, first of two count columns"}, "[3]": {"conditions": "STRL33 18-mer scan, background subtracted, second of two count columns"}, "[4]": {"conditions": "Panel E, 9-mers and 12-mers of CD4, empty control 571"}, "[5]": {"conditions": "Panel C, 15-mers and 18-mers of CD4, empty control 556"}, "[6]": {"conditions": "Panel B, 15-mers and 18-mers of CD4, empty control 575"}, "[7]": {"conditions": "CXCR4 18-mer scan, background subtracted, empty control 0"}, "[8]": {"conditions": "CXCR4 18-mer scan, empty control 412"}}, "note": "Several values for one entry are separate records, joined by “and”; a condition that tells them apart may be missing. Equal entries are not always repeated. Where two headings read alike, the source gives them in different places.", "data": [{"sequence": "LLNLAISDLFFLLTVPFW [CCR5 segment 69-86]", "values": [{"measurement": "Counts per 20′ Average-background", "setting": "background subtracted", "result": 144, "unit": "counts per 20′"}]}, {"sequence": "GMWQCLLSDSGQVLLESNIKV", "values": [{"measurement": "number of radioactive decays (counts) counted", "setting": "human CD4 21-mer scan, empty control 2075", "result": 4185, "unit": "counts"}]}, {"sequence": "THLLQGQSLTLT", "values": [{"measurement": "COUNTS of radiolabeled gp120 retained", "setting": "[1]", "result": 646, "unit": "counts"}]}, {"sequence": "LVISIFYHKLQSLTDVFL [STRL33 segment 53-70]", "values": [{"measurement": "radioactive counts recorded in twenty minutes", "setting": "[2]", "result": 1620.5, "unit": "counts"}, {"measurement": "radioactive counts recorded in twenty minutes", "setting": "[3]", "result": 1780.5, "unit": "counts"}]}, {"sequence": "IDIVVLAFQKAS", "values": [{"measurement": "COUNTS of radiolabeled gp120 retained", "setting": "[4]", "result": 630, "unit": "counts"}]}, {"sequence": "IEDSDTYICEVE", "values": [{"measurement": "COUNTS of radiolabeled gp120 retained", "setting": "[1]", "result": 1107, "unit": "counts"}]}, {"sequence": "AFVSLKFRKNFWKLVKDI [STRL33 segment 289-306]", "values": [{"measurement": "radioactive counts recorded in twenty minutes", "setting": "[2]", "result": 808.5, "unit": "counts"}, {"measurement": "radioactive counts recorded in twenty minutes", "setting": "[3]", "result": 1040.5, "unit": "counts"}]}, {"sequence": "KKEGEQVEFSFPLAFTVEKLT", "values": [{"measurement": "COUNTS of radiolabeled gp120 retained", "setting": "Panel A, 21-mers of CD4, empty control 515 and 617", "result": 1847, "unit": "counts"}]}, {"sequence": "LILINCKRLKSMTDIYLL [CCR5 segment 53-70]", "values": [{"measurement": "Counts per 20′ Average-background", "setting": "background subtracted", "result": 2, "unit": "counts per 20′"}]}, {"sequence": "NLKIEDSDT", "values": [{"measurement": "COUNTS of radiolabeled gp120 retained", "setting": "[1]", "result": 512, "unit": "counts"}]}, {"sequence": "LLIWVISLLVSLPQIIYG [STRL33 segment 153-170]", "values": [{"measurement": "radioactive counts recorded in twenty minutes", "setting": "[2]", "result": 42.5, "unit": "counts"}, {"measurement": "radioactive counts recorded in twenty minutes", "setting": "[3]", "result": 75.5, "unit": "counts"}]}, {"sequence": "LLQGQSLTL", "values": [{"measurement": "COUNTS of radiolabeled gp120 retained", "setting": "[1]", "result": 568, "unit": "counts"}]}, {"sequence": "EFSFPLAFTVEKLTG", "values": [{"measurement": "COUNTS of radiolabeled gp120 retained", "setting": "[5]", "result": 920, "unit": "counts"}]}, {"sequence": "TVEKLTGSG", "values": [{"measurement": "COUNTS of radiolabeled gp120 retained", "setting": "[4]", "result": 487, "unit": "counts"}]}, {"sequence": "IKNLKIEDSDTYICE", "values": [{"measurement": "COUNTS of radiolabeled gp120 retained", "setting": "[6]", "result": 568, "unit": "counts"}]}, {"sequence": "LLLTIPDFIFANVSEADD", "values": [{"measurement": "radioactive counts recorded in twenty minutes", "setting": "[7]", "result": 1006, "unit": "counts"}, {"measurement": "radioactive counts recorded in twenty minutes", "setting": "[8]", "result": 1418, "unit": "counts"}]}, {"sequence": "IYDINYYTSEPCQKINVK [CCR5 segment 9-26]", "values": [{"measurement": "Counts per 20′ Average-background", "setting": "background subtracted", "result": 228, "unit": "counts per 20′"}]}, {"sequence": "HDYHEDYGFSSFNDSSQE", "values": [{"measurement": "Binding Results For Window Length (counts bound-background), 9", "setting": "STRL33 amino terminus, 9-mer starting at the first residue of the printed sequence, background subtracted", "result": 708, "unit": "counts"}, {"measurement": "Binding Results For Window Length (counts bound-background), 12", "setting": "STRL33 amino terminus, 12-mer starting at the first residue of the printed sequence, background subtracted", "result": 1427, "unit": "counts"}, {"measurement": "Binding Results For Window Length (counts bound-background), 15", "setting": "STRL33 amino terminus, 15-mer starting at the first residue of the printed sequence, background subtracted", "result": 1772, "unit": "counts"}, {"measurement": "Binding Results For Window Length (counts bound-background), 18", "setting": "STRL33 amino terminus, 18-mer starting at the first residue of the printed sequence, background subtracted", "result": 1500, "unit": "counts"}]}, {"sequence": "QGNFPLIIKNLKIED", "values": [{"measurement": "COUNTS of radiolabeled gp120 retained", "setting": "[6]", "result": 509, "unit": "counts"}]}, {"sequence": "AFLQFSKVFLPCMYLVVF [STRL33 segment 25-42]", "values": [{"measurement": "radioactive counts recorded in twenty minutes", "setting": "[2]", "result": 1421.5, "unit": "counts"}, {"measurement": "radioactive counts recorded in twenty minutes", "setting": "[3]", "result": 1359.5, "unit": "counts"}]}, {"sequence": "RLHLSVADLLFVITLPFW [CXCR4 segment 77-94]", "values": [{"measurement": "radioactive counts recorded in twenty minutes", "setting": "[7]", "result": 136, "unit": "counts"}, {"measurement": "radioactive counts recorded in twenty minutes", "setting": "[8]", "result": 548, "unit": "counts"}]}, {"sequence": "KRHRAVRLIFTIMIVYFL [CCR5 segment 229-]", "values": [{"measurement": "Counts per 20′ Average-background", "setting": "background subtracted", "result": 36, "unit": "counts per 20′"}]}, {"sequence": "SITEALAFFHCCLNPILY [CXCR4 segment 285-302]", "values": [{"measurement": "radioactive counts recorded in twenty minutes", "setting": "[7]", "result": 188, "unit": "counts"}, {"measurement": "radioactive counts recorded in twenty minutes", "setting": "[8]", "result": 600, "unit": "counts"}]}, {"sequence": "VVLAFQKASSIV", "values": [{"measurement": "COUNTS of radiolabeled gp120 retained", "setting": "[4]", "result": 567, "unit": "counts"}]}, {"sequence": "AFTVEKLTGSGELWWQAE", "values": [{"measurement": "COUNTS of radiolabeled gp120 retained", "setting": "[5]", "result": 788, "unit": "counts"}]}, {"sequence": "EGEQVEFSFPLA", "values": [{"measurement": "COUNTS of radiolabeled gp120 retained", "setting": "[4]", "result": 1456, "unit": "counts"}]}, {"sequence": "TGLYFIGFFSGIFFIILL", "values": [{"measurement": "Counts per 20′ Average-background", "setting": "background subtracted", "result": 80, "unit": "counts per 20′"}]}, {"sequence": "IDIVVLAFQKASSIV", "values": [{"measurement": "COUNTS of radiolabeled gp120 retained", "setting": "[5]", "result": 865, "unit": "counts"}]}, {"sequence": "MDAQVSSPIYDINYYTSE [CCR5 (1-18) variant Y3A]", "values": [{"measurement": "Relative % of Control", "setting": "CCR5 (1-18) alanine variants", "result": "51 ± 2", "unit": "%"}]}, {"sequence": "GCEFENTVHKWISITEAL [CXCR4 segment 273-290]", "values": [{"measurement": "radioactive counts recorded in twenty minutes", "setting": "[7]", "result": 264, "unit": "counts"}, {"measurement": "radioactive counts recorded in twenty minutes", "setting": "[8]", "result": 676, "unit": "counts"}]}, {"sequence": "TCITVDRFIVVVKATKAY", "values": [{"measurement": "radioactive counts recorded in twenty minutes", "setting": "[2]", "result": 89.5, "unit": "counts"}, {"measurement": "radioactive counts recorded in twenty minutes", "setting": "[3]", "result": 346.5, "unit": "counts"}]}, {"sequence": "FACWLPYYIGISIDSFIL [CXCR4 segment 249-266]", "values": [{"measurement": "radioactive counts recorded in twenty minutes", "setting": "[7]", "result": 202, "unit": "counts"}, {"measurement": "radioactive counts recorded in twenty minutes", "setting": "[8]", "result": 614, "unit": "counts"}]}, {"sequence": "EEVQLLVFGLTANSA", "values": [{"measurement": "COUNTS of radiolabeled gp120 retained", "setting": "Panel F, sequential alanine replacements of CD4 polypeptides, duplicate series, empty control 569", "result": "22206 counts and 18227 counts"}]}, {"sequence": "LAFQKASSIVYK", "values": [{"measurement": "COUNTS of radiolabeled gp120 retained", "setting": "[4]", "result": 465, "unit": "counts"}]}, {"sequence": "LKIEDSDTYICEVEDQKE", "values": [{"measurement": "COUNTS of radiolabeled gp120 retained", "setting": "[6]", "result": 872, "unit": "counts"}]}, {"sequence": "MEGISIYTADNYTEEMGS", "values": [{"measurement": "Relative % of Control", "setting": "CXCR4 (1-18) alanine variants", "result": "70 ± 4", "unit": "%"}]}, {"sequence": "AKRFCKCCSIFQQEAPER [CCR5 segment 317-]", "values": [{"measurement": "Counts per 20′ Average-background", "setting": "background subtracted", "result": 64, "unit": "counts per 20′"}]}, {"sequence": "ANSDTHLLQGQS", "values": [{"measurement": "COUNTS of radiolabeled gp120 retained", "setting": "[1]", "result": 559, "unit": "counts"}]}, {"sequence": "LTANSDTHL", "values": [{"measurement": "COUNTS of radiolabeled gp120 retained", "setting": "[1]", "result": 596, "unit": "counts"}]}, {"sequence": "SFPLAFTVEKLTGSGELW", "values": [{"measurement": "COUNTS of radiolabeled gp120 retained", "setting": "[5]", "result": 656, "unit": "counts"}]}, {"sequence": "LWDQGNFPLIIKNLKIED", "values": [{"measurement": "COUNTS of radiolabeled gp120 retained", "setting": "[6]", "result": 582, "unit": "counts"}]}, {"sequence": "FPLIIKNLKIED", "values": [{"measurement": "COUNTS of radiolabeled gp120 retained", "setting": "[1]", "result": 511, "unit": "counts"}]}, {"sequence": "ANSDTHLLQGQSLTLTLE", "values": [{"measurement": "COUNTS of radiolabeled gp120 retained", "setting": "[6]", "result": 1540, "unit": "counts"}]}, {"sequence": "ERASSVYTRSTGEQEISV [CCR5 segment 333-]", "values": [{"measurement": "Counts per 20′ Average-background", "setting": "background subtracted", "result": 84, "unit": "counts per 20′"}]}, {"sequence": "LLFVITLPFWAVDAVANW", "values": [{"measurement": "radioactive counts recorded in twenty minutes", "setting": "[7]", "result": 63, "unit": "counts"}, {"measurement": "radioactive counts recorded in twenty minutes", "setting": "[8]", "result": 475, "unit": "counts"}]}, {"sequence": "GNFPLIIKNLKIEDSDTY", "values": [{"measurement": "COUNTS of radiolabeled gp120 retained", "setting": "[6]", "result": 557, "unit": "counts"}]}, {"sequence": "SSIVYKKEGEQVEFSFPL", "values": [{"measurement": "COUNTS of radiolabeled gp120 retained", "setting": "[5]", "result": 756, "unit": "counts"}]}, {"sequence": "IEDSDTYICEVEDQKEEV", "values": [{"measurement": "COUNTS of radiolabeled gp120 retained", "setting": "[6]", "result": 1230, "unit": "counts"}]}]}
